# Assay results taken from patent US5157019A, “Serine protease inhibitors” (Monsanto Company, priority 1991, dated 1992).
# Ends that are not written are not given here.
# Experiments:
# HUMAN SPUTUM ELASTASE = target: T1, HUMAN SPUTUM ELASTASE (Homo sapiens, UniProt P08246); assay: Elastase assay (MeO-Suc-Ala-Pro-Val-pNA); assay type: biochemical; settings: 200 μM peptide
# T1 construct: HUMAN SPUTUM ELASTASE; purchased Elastin Products Company SE563; host or cells: human sputum (from the product name)
# T1 sequence (P08246 30-267): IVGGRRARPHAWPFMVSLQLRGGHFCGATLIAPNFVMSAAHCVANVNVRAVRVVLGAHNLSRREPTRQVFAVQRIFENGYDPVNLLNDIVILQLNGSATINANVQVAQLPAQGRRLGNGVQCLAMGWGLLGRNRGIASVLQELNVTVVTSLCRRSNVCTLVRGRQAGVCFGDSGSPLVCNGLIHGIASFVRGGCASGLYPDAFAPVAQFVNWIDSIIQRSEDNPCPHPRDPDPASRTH
# Description: Enzyme used is "HUMAN SPUTUM ELASTASE®" which is an enzyme which is the target protease for α1 antitrypsin from Elastin Products Company, Catalog No. SE563, lot 85071, 875 units/mg as determined by supplier with N-Suc-Ala-Ala-Ala-pNA; prepared at 0.2 mg/mL in 0.1M Tris·HCl, pH 8.8 at 37 degrees C. An amount of enzyme is used to give approximately 0.1 change in Absorbance/min; which in this assay was 1 μg.
# The substrate is MeO-Suc-Ala-Pro-Val-pNA, Sigma Catalog No. M-4765. About 50 mg of the substrate is dissolved in 1 ml of 1-methyl-2-pyrrolidinone and diluted to 33 mls. with 0.1M Tris-HCl, pH 7.5, containing 0.5M NaCl, and 0.01 wt % sodium azide.
# Peptide solutions are prepared at 500 μM, using 1.5% of the final volume of DMSO first and diluting with distilled water (DW) or 0.1M Tris.HCl, pH 8.8 at 37 degrees C. [formula]
# Cathepsin G = target: T2, Cathepsin G (Homo sapiens, UniProt P08311); assay: Cathepsin G assay (Suc-Ala-Ala-Pro-Phe-pNA, 410 nm); assay type: biochemical; settings: 200 μM peptide (head of Table IX)
# T2 construct: purchased Elastin Products Company (EPC) SG-45
# T2 sequence (P08311 21-255): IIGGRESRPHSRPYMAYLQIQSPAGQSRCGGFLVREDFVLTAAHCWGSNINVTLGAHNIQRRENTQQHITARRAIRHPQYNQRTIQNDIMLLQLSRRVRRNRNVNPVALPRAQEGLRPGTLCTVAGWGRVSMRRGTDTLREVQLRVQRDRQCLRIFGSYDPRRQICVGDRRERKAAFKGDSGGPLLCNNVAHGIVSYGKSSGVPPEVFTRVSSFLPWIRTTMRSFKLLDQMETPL
# Description: Reference: Elastin Products Company (EPC) technical data sheet, cathepsin G, No. SG-45.
# Method: Spectrophotometric rate determination
# A) Buffer; 0.1M Tris, pH 7.5 at 25° C.
# B) Substrate; 60 mM Suc-Ala-Ala-Pro-Phe-pNA obtained from Sigma Chemical Company. Solution prepared by dissolving 50 mg substrate in 1.3 ml of 1-methyl-2-pyrrolidinone. Stored at 5° C.
# C) Peptide Inhibitors; 200 μM HCl salt. Depending on peptide solubility, dissolved in buffer or DMSO and then buffer added for a final concentration of 10% DMSO.
# D) Enzyme; Cathepsin G, EPC SG-45, lot 85117 used for all assays, 0.0077 mg protein per mg solid determined by supplier by Bradford method. Enzyme was dissolved in buffer at a concentration of approx. 5 mg/ml solid. Solution stored on ice, used within 2 hours.
# Pipetted the following into semi-micro quartz cuvettes: 0.3 ml buffer, 0.15 ml peptide solution and 0.5 ml of substrate solution. Equilibrate for 5 min. at 25° C., then add 0.05 ml of enzyme solution and monitor the release of pNA spectrophotometrically at 410 nm for at least 3 minutes. The controls contain either 0.45 ml of buffer or 20% DMSO in buffer (for a final concentration of 10% DMSO).
# The rate (O.D./min) is obtained as an average over 3 minutes. [formula]
Sequence,inhibition at 200 µM (HUMAN SPUTUM ELASTASE) [%],inhibition at 200 µM (Cathepsin G) [%],Elastase Inhibition (HUMAN SPUTUM ELASTASE) [%],Cathepsin G Inhibition (Cathepsin G) [%]
FLEAIPMSIPPEVKFNKPFVFLI [Peptide 4],70,14,–,–
FLEAIPMSIPPEVKFNKPFVFLLIEQNTKSPLFLGKVVNPTQK [Peptide 24],–,–,26,0
FLEAIPMSIPPIVRFNRPFLLII [Peptide 19],–,–,100,–
FLEAIPMSIPPIVRFNRPFLLIIVPTDTQNIFFLSKVTNPSKPR [Peptide 32],–,–,0,0
FLEAIPMSIPPRVTFKANRPFLVFIREVPLNTIIFLGRVANP [Peptide 28],–,–,0,16
FLEAIPMSIRTIVRFNRPFLLII [Peptide 12],–,–,0,51
IAGRSLNPNIVRFNRPFLLIIVPTDTQNIFFLSKVTNPSKPR [Peptide 31],–,–,0,54
IAGRSLNPNPPEVKFKNPFVFLI [Peptide 5],–,–,0,0
IAGRSLNPNRVTLRYNKPFILVLFETPGNSLVFLGRISNPATK [Peptide 33],–,–,0,35
IAGRSLNPNRVTVKFNKPFVFLLIEQNTKSPLFLGKVVNPTQK [Peptide 25],–,–,0,35
TLLSALVETPPEVKFKNPFVFLI [Peptide 6],–,–,17,0
TLLSALVETRTIVKFNKPFVFLLIEQNTKSPLFLGKVVNPTQK [Peptide 26],–,–,–,0
TLLSALVETRTIVRFNRPFLLII [Peptide 10],–,–,0,65
TLLSALVETRTIVRFNRPFLLIIVPTDTQNIFFLSKVTNPSKPR [Peptide 30],–,–,–,38
